Data as given in patent US9645134B1, “Isotopically-labeled solvents and the use of same in testing e-cigarettes” (Celerion, Inc., priority 2013, dated 2017).
Where two headings read alike, the source gives them in different places.

Experiments:
[1] = clinical study: plasma labeled and unlabeled PG by LC-MS/MS after vaporizer use or second-hand exposure; format: in vivo, human
Source text: A clinical study protocol was generated. The objectives of this study were to measure C13-labeled PG in blood and to evaluate the extent of second-hand exposure to PG and nicotine during use of a commercially-available electronic nicotine delivery system (vaporizer).
All subjects completed screening procedures and checked in to the clinic on the morning of the Test Visit. All subjects remained in the clinic until the completion of the final study procedure later that day.
Following completion of check-in procedures, all subjects were seated in a room together approximately 30 minutes prior to the start of product administration. Subjects in the vaping group began using the vaporizers as directed by the clinic staff—one inhalation at least 3 seconds in duration every 30 seconds for a total of 30 inhalations. Each vaporizer contained a 1.8 v/v % nicotine solution in a PG vehicle. […]
The samples were kept at room temperature prior to centrifuge, and were centrifuged at 2500 RPM for 15 minutes at 4° C. within 60 minutes of collection. […] (+/− 10° C.) or below (within 90 minutes from collection) until analyzed by Celerion Bioanalytical Services. […]
Plasma PG (labeled and unlabeled) and nicotine were analyzed by LC-MS/MS using analytical methods with appropriate quality controls in accordance with FDA Good Laboratory Practice (GLP) regulations (Title 21 CFR Part 58). […]

rabbit = settings: cited from earlier work
[2] = in vivo; cited from earlier work

## [13CH3][13CH](O)[13CH2]O (stereo not drawn) [Species A3, Propyleneglycol-^13C3]
[1]; non-vaping subjects (Subjects 4-6), in room with vaping subjects, FIG. 2
  blood concentration of labeled propylene glycol: essentially no detectable levels

## OCC(O)CO [glycerol, propane-1,2,3-triol]
rabbit; in vivo, po
  acute oral toxicity LD50: 10,000 mg/kg

## propane-1,2-diol [propylene glycol]
[1]; all subjects (Subjects 1-6), meal high in PG at about 4 hours, FIG. 3
  blood concentration of unlabeled propylene glycol: significant
rabbit; oral
  acute oral toxicity LD50: 18500 mg/kg
[2]
  excreted by the kidneys unchanged or as the glucuronide conjugate: approximately 45%
  half-life: approximately 4 hours
